Source: US20240316047A1, “INHIBITORS OF RNA HELICASE DHX9 AND USES THEREOF” (ACCENT THERAPEUTICS, INC., priority 2022, published 2024)
pIC50: −log10 of the molar value.

Molecular target: Human recombinant DHX9 protein (Homo sapiens (Human), UniProt Q08211)
Assay: DHX9 ATPase assay (ADP-Glo)
Assay type: biochemical
Conditions: for pIC50: read-out: DHX9 Biochemical Inflection Point

Human recombinant DHX9 protein, sequence (Q08211 whole entry): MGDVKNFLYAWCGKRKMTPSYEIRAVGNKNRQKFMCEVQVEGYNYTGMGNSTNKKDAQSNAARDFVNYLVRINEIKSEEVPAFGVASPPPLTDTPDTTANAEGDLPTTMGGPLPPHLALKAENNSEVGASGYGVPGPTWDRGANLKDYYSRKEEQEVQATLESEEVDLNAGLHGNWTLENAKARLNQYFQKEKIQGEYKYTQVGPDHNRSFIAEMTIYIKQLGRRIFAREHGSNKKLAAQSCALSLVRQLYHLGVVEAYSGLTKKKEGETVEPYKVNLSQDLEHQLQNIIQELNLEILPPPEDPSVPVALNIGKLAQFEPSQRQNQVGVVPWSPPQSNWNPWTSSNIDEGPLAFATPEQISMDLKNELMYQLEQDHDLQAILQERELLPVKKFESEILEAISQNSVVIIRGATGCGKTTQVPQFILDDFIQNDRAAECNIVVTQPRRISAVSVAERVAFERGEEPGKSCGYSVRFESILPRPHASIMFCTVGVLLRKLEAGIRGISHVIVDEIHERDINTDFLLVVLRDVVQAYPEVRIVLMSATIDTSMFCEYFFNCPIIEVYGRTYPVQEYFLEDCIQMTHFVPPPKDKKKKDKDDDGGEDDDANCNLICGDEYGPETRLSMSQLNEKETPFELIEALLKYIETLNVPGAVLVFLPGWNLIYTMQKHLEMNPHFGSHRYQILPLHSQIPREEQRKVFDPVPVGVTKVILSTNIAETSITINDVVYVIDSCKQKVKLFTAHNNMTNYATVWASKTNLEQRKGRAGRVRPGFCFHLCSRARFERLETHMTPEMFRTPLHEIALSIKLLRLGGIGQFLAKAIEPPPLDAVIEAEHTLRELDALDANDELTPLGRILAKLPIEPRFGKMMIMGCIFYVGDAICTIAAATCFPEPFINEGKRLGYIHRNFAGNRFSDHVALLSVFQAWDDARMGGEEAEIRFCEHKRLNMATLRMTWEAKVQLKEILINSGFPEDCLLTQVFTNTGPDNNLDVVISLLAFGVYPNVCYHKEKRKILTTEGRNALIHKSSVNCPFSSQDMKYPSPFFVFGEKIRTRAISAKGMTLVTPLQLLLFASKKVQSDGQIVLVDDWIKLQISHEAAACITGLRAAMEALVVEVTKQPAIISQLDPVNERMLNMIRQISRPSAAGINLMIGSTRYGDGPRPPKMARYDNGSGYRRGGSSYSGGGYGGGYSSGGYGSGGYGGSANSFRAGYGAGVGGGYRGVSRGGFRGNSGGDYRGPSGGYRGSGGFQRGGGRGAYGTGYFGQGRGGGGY

| Structure (SMILES) | DHX9 Biochemical Max Inhibition [%] | pIC50 |
| --- | --- | --- |
| Cn1cc(C(=O)Nc2cc(Cl)cc(NS(C)(=O)=O)c2)cc1N1CCCCC1=O [Example 158, N-(3-chloro-5-(methylsulfonamido)phenyl)-1-methyl-5-(2-oxopiperidin-1-yl)-1H-pyrrole-3-carboxamide] | 76.5 | 7.46 |
| CS(=O)(=O)Nc1cc(Br)cc(NC(=O)c2cnn(-c3ccccc3CO)c2)c1 [Example 161, N-(3-bromo-5-(methylsulfonamido)phenyl)-1-(2-(hydroxymethyl)phenyl)-1H-pyrazole-4-carboxamide] | 44.9 | 7.32 |
| CS(=O)(=O)Nc1cc(Br)cc(NC(=O)c2cnn(-c3ncccc3N)c2)c1 [Example 162, 1-(3-aminopyridin-2-yl)-N-(3-bromo-5-(methylsulfonamido)phenyl)-1H-pyrazole-4-carboxamide] | 60.5 | 7.71 |
| CS(=O)(=O)Nc1cc(Cl)cc(NC(=O)c2cc(C(=O)Nc3ccccc3)cs2)c1 [Example 166, N2-(3-chloro-5-(methylsulfonamido)phenyl)-N4-phenylthiophene-2,4-dicarboxamide] | 64 | 7.55 |
| CS(=O)(=O)Nc1cc(Cl)cc(NC(=O)c2cc(-c3ccccn3)c(C3CC3)s2)c1 [Example 177, N-(3-chloro-5-(methylsulfonamido)phenyl)-5-cyclopropyl-4-(pyridin-2-yl)thiophene-2-carboxamide] | 77 | 7.67 |
| CS(=O)(=O)Nc1cc(Cl)cc(NC(=O)c2cnn(-c3ncccc3OCc3cccc(O)c3)c2)c1 [Example 179] | 72.3 | 7.57 |
| CS(=O)(=O)Nc1cc(Cl)cc(NC(=O)c2cnn(-c3ccc(N4CCOCC4=O)cn3)c2)c1 [Example 180] | 67.4 | 7.69 |
| CS(=O)(=O)Nc1cc(Cl)cc(NC(=O)c2cnn(C3CCOC3)c2)c1 (centres unmarked) [Example 182] | 73.4 | 6.74 |
| CN1CCN(c2cnc(-n3cc(C(=O)Nc4cc(Cl)cc(NS(C)(=O)=O)c4)cn3)nc2)CC1=O [Example 183] | 67.1 | 7.70 |
| CS(=O)(=O)Nc1cc(Cl)cc(NC(=O)c2cnn(-c3ncccc3OCc3ccccc3F)c2)c1 [Example 189] | 72.1 | 7.49 |
| CC(C)(O)COc1cccnc1-n1cc(C(=O)Nc2cc(Cl)cc(NS(C)(=O)=O)c2)cn1 [Example 195] | 67.1 | 7.45 |
| CS(=O)(=O)Nc1cc(Cl)cc(NC(=O)c2cnn(-c3ncccc3Oc3ncccn3)c2)c1 [Example 196] | 68.9 | 7.10 |
| COc1ccc(-n2cc(C(=O)Nc3cc(Cl)cc(NS(C)(=O)=O)c3)cn2)nc1 [Example 197] | 72.7 | 7.59 |
| CS(=O)(=O)Nc1cc(Cl)cc(NC(=O)c2cnn(-c3ccc(S(C)(=O)=O)cn3)c2)c1 [Example 198] | 60.7 | 7.15 |
| CS(=O)(=O)Nc1cc(Cl)cc(NC(=O)c2cnn(-c3ncccc3S(C)(=O)=O)c2)c1 [Example 199] | 73.4 | 7.07 |
| CN(C)S(=O)(=O)c1ccc(-n2cc(C(=O)Nc3cc(Cl)cc(NS(C)(=O)=O)c3)cn2)nc1 [Example 200] | 57.7 | 7.07 |
| CP(C)(=O)c1cccnc1-n1cc(C(=O)Nc2cc(Cl)cc(NS(C)(=O)=O)c2)cn1 [Example 201] | 66.1 | 6.74 |
| CS(=O)(=O)Nc1cc(Cl)cc(NC(=O)c2cnn(-c3ncc(F)cc3OCc3cccc(C#N)c3)c2)c1 [Example 203] | 76.5 | 7.55 |
| CS(=O)(=O)Nc1cc(Cl)cc(NC(=O)c2cnn(-c3ncccc3OCc3nccs3)c2)c1 [Example 205] | 71.4 | 7.65 |
| CS(=O)(=O)Nc1cc(Cl)cc(NC(=O)c2cc3ccccn3c2)c1 [Example 209] | 64 | 7.05 |
| CS(=O)(=O)Nc1cc(Cl)cc(NC(=O)c2cnn(-c3c(F)cccc3OCc3cccc(F)c3)c2)c1 [Example 211] | 65.4 | 7.20 |
| CS(=O)(=O)Nc1cc(F)cc(NC(=O)c2cc(-c3ncccc3OCc3ccccc3)cs2)c1 [Example 214] | 75.9 | 7.06 |
| CSc1ccc(-n2cc(C(=O)Nc3cc(Cl)cc(NS(C)(=O)=O)c3)cn2)nc1 [Example 218] | 59 | 7.12 |
| CSc1cccnc1-n1cc(C(=O)Nc2cc(Cl)cc(NS(C)(=O)=O)c2)cn1 [Example 219] | 62.3 | 7.39 |

Second part, the molecule after the results:

| DHX9 Biochemical Max Inhibition [%] | pIC50 | Structure (SMILES) |
| --- | --- | --- |
| 61.8 | 7.84 | Cn1cc(C(=O)Nc2cc(Cl)cc(NS(C)(=O)=O)c2)cc1-c1ncc(F)cn1 [Example 171, N-(3-chloro-5-(methylsulfonamido)phenyl)-5-(5-fluoropyrimidin-2-yl)-1-methyl-1H-pyrrole-3-carboxamide] |
| 72.4 | 7.80 | CCOc1cnc(-c2cc(C(=O)Nc3cc(Cl)cc(NS(C)(=O)=O)c3)cn2C)nc1 [Example 172] |
| 61.3 | 8.07 | CCS(=O)(=O)Nc1cc(Cl)cc(NC(=O)c2cc(-c3ncccn3)n(C)c2)c1 [Example 173, N-(3-chloro-5-(ethylsulfonamido)phenyl)-1-methyl-5-(pyrimidin-2-yl)-1H-pyrrole-3-carboxamide] |
| 75.8 | 8.74 | Cn1cc(C(=O)Nc2cc(Cl)cc(NS(C)(=O)=O)c2)cc1-c1ncccc1OCc1cncc(F)c1 [Example 174, N-(3-chloro-5-(methylsulfonamido)phenyl)-5-(3-((5-fluoropyridin-3-yl)methoxy)pyridin-2-yl)-1-methyl-1H-pyrrole-3-carboxamide] |
| 57.4 | 8.02 | CS(=O)(=O)Nc1cc(Cl)cc(NC(=O)c2cc(CN)n(-c3ccccn3)c2)c1 [Example 181] |
| 66.3 | 7.71 | CN1CCN(c2cnc(-n3cc(C(=O)Nc4cc(Cl)cc(NS(C)(=O)=O)c4)cn3)cn2)CC1=O [Example 184] |
| 80.5 | 8.33 | CS(=O)(=O)Nc1cc(Cl)cc(NC(=O)c2cc(-c3ncccc3OCc3cccnc3)n(CC(F)(F)F)c2)c1 [Example 185] |
| 87.9 | 8.41 | CS(=O)(=O)Nc1cc(Cl)cc(NC(=O)c2cnn(-c3ncccc3OCc3cncc(F)c3)c2)c1 [Example 186] |
| 66.2 | 7.73 | CS(=O)(=O)Nc1cc(Cl)cc(NC(=O)c2cnn(-c3ncccc3OCc3cncnc3)c2)c1 [Example 188] |
| 68.8 | 7.72 | CS(=O)(=O)Nc1cc(Cl)cc(NC(=O)c2cnn(-c3ccc(C4CCOCC4)cn3)c2)c1 [Example 190] |
| 67.6 | 8.38 | CS(=O)(=O)Nc1cc(Cl)cc(NC(=O)c2cnn(-c3ccc(N4CC5CCC(C4)O5)cn3)c2)c1 [Example 191] |
| 72.6 | 7.78 | CS(=O)(=O)Nc1cc(Cl)cc(NC(=O)c2cnn(-c3ccc(N4CCn5ccnc5C4)cn3)c2)c1 [Example 192] |
| 65.8 | 7.95 | CN1CCN(c2cnc(-n3cc(C(=O)Nc4cc(Cl)cc(NS(C)(=O)=O)c4)cn3)c(OCc3cccnc3)c2)CC1=O [Example 193] |
| 64.3 | 8.17 | CS(=O)(=O)Nc1cc(Cl)cc(NC(=O)c2cnn(-c3ncc(N4CCOCC4)cc3OCc3cccnc3)c2)c1 [Example 194] |
| 72.3 | 7.90 | CS(=O)(=O)Nc1cc(Cl)cc(NC(=O)c2cnn(-c3ncc(F)cc3OCc3cccc(F)c3)c2)c1 [Example 202] |
| 68.9 | 8.02 | Cc1ccc(OCc2cccc(F)c2)c(-n2cc(C(=O)Nc3cc(Cl)cc(NS(C)(=O)=O)c3)cn2)n1 [Example 204] |
| 74.9 | 7.77 | CS(=O)(=O)Nc1cc(Cl)cc(NC(=O)c2cnn(-c3ncccc3OCc3cn[nH]c3)c2)c1 [Example 206] |
| 70 | 7.82 | Cc1cc(C(=O)Nc2cc(Cl)cc(NS(C)(=O)=O)c2)cn1-c1ncc(F)cn1 [Example 207] |
| 79.9 | 7.81 | CCOc1cnc(-n2cc(C(=O)Nc3cc(Cl)cc(NS(C)(=O)=O)c3)cc2C)nc1 [Example 208] |
| 71.3 | 8.44 | CS(=O)(=O)Nc1cc(Cl)cc(NC(=O)c2cnn(-c3ccccc3OCc3cccc(F)c3)c2)c1 [Example 210] |
| 72.6 | 8.28 | CNC(=O)c1sc(C(=O)Nc2cc(Cl)cc(NS(C)(=O)=O)c2)cc1-c1ncccc1OCc1ccccc1 [Example 212] |
| 71.6 | 7.79 | CN(C)C(=O)c1sc(C(=O)Nc2cc(Cl)cc(NS(C)(=O)=O)c2)cc1-c1ncccc1OCc1ccccc1 [Example 213] |
| 75.4 | 8.40 | CS(=O)(=O)Nc1cc(Cl)cc(NC(=O)c2cc(-c3ncccc3OCc3cnco3)cs2)c1 [Example 215] |
| 78 | 8.36 | CS(=O)(=O)Nc1cc(Cl)cc(NC(=O)c2cc(-c3ncccc3OCc3ccccc3)c(CO)s2)c1 [Example 216] |
| 69.6 | 8.68 | CS(=O)(=O)Nc1cc(Cl)cc(NC(=O)c2cc(-c3ncccc3OCc3cccnc3)cs2)c1 [Example 217] |
| 79.7 | 7.80 | CS(=O)(=O)Nc1cc(Cl)cc(NC(=O)c2cc(-c3ncccc3NC(=O)C3CC3)cs2)c1 [Example 220] |
| 78.3 | 8.18 | CN(C)C(=O)Cc1cccnc1-c1csc(C(=O)Nc2cc(Cl)cc(NS(C)(=O)=O)c2)c1 [Example 221] |
| 78.7 | 7.75 | CN(C)C(=O)c1cccnc1-c1csc(C(=O)Nc2cc(Cl)cc(NS(C)(=O)=O)c2)c1 [Example 222] |
